# Data reported in patent US11254700B2, “GSK-3β inhibitors and use thereof in methods of treatment” (UNIVERSITY OF HAWAII, priority 2017, dated 2022).
# Test system: Aβ plaques and Iba1-positive microglia
# Assay: Immunofluorescence labeling (Aβ+IBA1)
# Format: in vivo, mouse
# Conditions: APP/PS1 mice
# Procedure: The backgrounds of all mice (APP/PS1 dual transgenic mice and wild-type mice with littermates) were C57/B6. Transgenic mice were randomly divided into three groups (n=20 for each group), and wild-type mice were used as controls (n=20). The control group and one group of transgenic mice (model group) were given sterilized ultrapure water, and the other two groups of transgenic mice received low- and high-dose Isoorientin (20 and 50 mg/kg, respectively) via intragastric administration for 60 days. Throughout the study-period, animals were housed in a controlled environment (temperature, 22° C.; humidity, 50-60%, 12-hour light/12-hour dark schedules), with free access to rodent chow and water. After a Morris water maze test, mice were perfused with cold phosphate-buffered saline (PBS), brain tissues were dissected and kept frozen at −80° C. until further analysis. […] Double-labelling procedures were performed to determine the relationship between Iba1-positive and Aβ-positive plaques. […] Sections were then blocked with 5% BSA in 0.01% TRITON X-100 in TBS (TBST) for 1 hour at room temperature. […] Representative images were obtained by fluorescence microscope (Leica).
structure (smiles),measurement,value
"O=c1cc(-c2ccc(O)c(O)c2)oc2cc(O)c([C@@H]3O[C@H](CO)[C@@H](O)[C@H](O)[C@H]3O)c(O)c12 [Compound 1, isoorientin]",Aβ plaques in cortex and hippocampus,reduced
same,activated aggregated Iba1-positive cells around plaques,also reduced
